For test [1], the target named is T1, human A2B receptor (Homo sapiens (Human), UniProt P29275). The test is described as follows: Radioligand binding competition assay, [3H]-DPCPX, membranes from HEK293 cells transfected with human A2B receptor. Here is the method: (§1) For all four adenosine receptors (A1, A2A, A2B and A3) filtration binding assay was performed. Radioligand binding competition assay was done in duplicates in the wells of a 96-well plate (Master Block, Greiner, 786201) containing binding buffer, receptor membrane extracts, a fixed concentration of tracer and test compound at increasing concentrations. In order to eliminate effect of buffer components, binding buffer was the same for all four receptors and contained: 50 mM Tris-HCl pH 7.4, 5 mM MgCl2, 1 mM EDTA, 150 mM NaCl, 0.1% Na-azide, and 5 U/ml adenosine-deaminase. Nonspecific binding was determined by co-incubation with 200-fold excess of cold competitor. In all radioligand binding experiments, the samples were incubated in a final volume of 0.1 ml for 60 minutes at 25° C. and then filtered over Unifilter plates (Perkin Elmer) pre-treated for 2 hours to limit tracer non-specific binding. Filters were washed five times with 0.5 ml of ice-cold washing buffer (50 mM Tris-HCl pH 7.4, 5 mM MgCl2, 1 mM EDTA) and 50 μl of Microscint 20 (Perkin Elmer) were added to each filter. The plates are incubated 15 min at room temperature on an orbital shaker and then counted with a TopCount™ for 1 min/well.
T1 sequence (P29275 whole entry): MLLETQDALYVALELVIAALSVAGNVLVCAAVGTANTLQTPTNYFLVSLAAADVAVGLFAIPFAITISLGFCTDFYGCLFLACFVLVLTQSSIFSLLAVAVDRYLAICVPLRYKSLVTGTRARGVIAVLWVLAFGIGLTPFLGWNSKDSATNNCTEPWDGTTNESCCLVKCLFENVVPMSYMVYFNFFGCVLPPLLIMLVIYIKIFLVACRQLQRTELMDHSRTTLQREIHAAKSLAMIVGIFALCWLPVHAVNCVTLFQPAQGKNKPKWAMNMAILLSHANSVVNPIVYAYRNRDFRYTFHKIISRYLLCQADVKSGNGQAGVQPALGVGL
For A2B, the assay was carried with [^3H]-DPCPX and membranes prepared from HEK293 cells transfected with human A2B receptor (Euroscreen FAST-003B).

The target in test [2] is human thermostabilised A2B receptor. Nature of the test: Wave Guided Interferometry (WGI). Type of test: binding. Conditions: 1:1 interaction model. How it is done: Biophysical Assays: A2B and A2A receptors used for biophysical measurements were produced using baculovirus mediated expression in insect cells. Expression constructs for both receptors contained point mutations that increased receptor thermal stability. Thermostabilised A2B and A2A receptors were solubilized using mild detergents (DDM and DM, respectively) and purified by standard purification methods. A2B receptor was purified in the buffer containing: 40 mM Tris-HCl pH 7.4, 200 mM NaCl, 0.05% DDM, and 0.005% CHS. A2A receptor was purified in the buffer containing: 40 mM Tris-HCl pH 7.4, 200 mM NaCl, 0.15% DM, and 0.002% CHS.
WGI experiments with A2B receptor were performed using the Wave delta instrument (Creoptix AG), a label free surface biosensor. Purified A2B protein was immobilized on 4PCP-N chips (Creoptix, quasi planar NTA functionalized polycarboxylate surface) at typical levels between […]. Running buffer was 25 mM Tris-HCl pH 7.5, 350 mM NaCl, 0.1% DDM, and 2% DMSO. The procedure started with 40 start-up cycles in order to equilibrate and stabilize the surface. Once start-up cycles were performed, different concentrations of compounds (diluted in running buffer, and adjusted depending on the kinetic characteristics) were injected in a multi cycle kinetic mode with typical association time of 120 s and dissociation time of 240 s. A DMSO calibration (typically 5 concentrations between 1 and 3% DMSO) was performed for every experiment in order to calibrate DMSO levels as well as to estimate the missing volume taken by the protein on the chip. Data were evaluated with Creoptix Wave software (Creoptix AG). All final signals are double referenced with injections of same compound concentrations on a reference channel and with buffer injections on the active channel (where protein is immobilized) and fitted with a 1:1 interaction model in order to obtain KD values.

In test [3] the target is A2B receptors endogenously expressed in HEK293 cells (Homo sapiens (Human), UniProt P29275). Nature of the test: cAMP assay (a), HEK293 cells with A2B receptors endogenously expressed. The test is classed as cell-based. To be noted: stimulated with 5 μM NECA; for IC50: read-out: cAMP pIC50 (converted). Here is the method:
(§2) Two assays have been employed, one using HEK293 with A2B receptors endogenously expressed (named cAMP assay (a) in the following) and a second one using HEK293 cells impressing recombinant human A2B receptors (named cAMP assay (b) in the following)
Real-time cAMP-assays in live cells were performed in HEK293 cells stably expressing the EPAC-sensor (I. Vedel, et al., 2015, J. Biomol. Screen. 20, 849-857).
In order to test for cAMP inhibition by preferred compounds of formula I and antagonists, respectively, from this invention, endogenous A2A and A2B expression in above cell lines was exploited. To run the assay, cells were incubated in 80 μl assay buffer for 15 minutes at room temperature. The assay buffer was composed of Hanks Balanced Salt Solution (Gibco) with 20 mM HEPES, pH 7.4 and […] adenosine-deaminase. All cAMP assays were run at room temperature using a PHERAstar FSX plate reader. The FRET donor (mCerulean) was excited at 430 nm. Fluorescence emission was measured at 480 nm and 530 nm for 65 minutes (cycle time 1.45 min). Prior to stimulation fluorescence was measured for 10 min (baseline). Subsequently cells were stimulated with 5 μM NECA (5′-(N-Ethylcarboxamido)adenosine; Tocris, Cat.-No:35920-39-9). Sharply 10.15 min after stimulation the compounds were added at increasing concentrations (between 0 and 200 μM) and fluorescence was recorded for 40 min. Each compound concentration was measured in duplicates.
A general note: Changes in cAMP serve as a functional read-out for many G protein-coupled receptors.

In the next test the target is human A1 receptor (Homo sapiens (Human), UniProt P30542). The test is described as follows: Radioligand binding competition assay, [3H]-DPCPX, membranes from CHO-K1 cells transfected with human A1 receptor. How it is done: as §1
Sequence of human A1 receptor (P30542 whole entry): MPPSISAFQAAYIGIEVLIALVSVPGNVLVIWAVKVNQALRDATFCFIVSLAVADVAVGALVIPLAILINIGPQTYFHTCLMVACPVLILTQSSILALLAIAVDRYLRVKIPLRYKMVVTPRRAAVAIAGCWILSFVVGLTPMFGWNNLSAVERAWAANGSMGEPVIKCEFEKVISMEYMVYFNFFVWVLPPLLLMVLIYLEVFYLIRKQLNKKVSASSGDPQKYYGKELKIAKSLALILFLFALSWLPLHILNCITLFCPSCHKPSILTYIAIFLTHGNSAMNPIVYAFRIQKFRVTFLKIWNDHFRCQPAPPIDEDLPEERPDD
For A1 receptor the assay was performed with [^3H]-DPCPX and membranes from CHO-K1 cells transfected with human A1 receptor (Euroscreen FAST-00B).

A further test has as its target human A2A receptor (Homo sapiens (Human), UniProt P29274). The test is described as follows: Radioligand binding competition assay, [3H]-NECA, membranes from HEK293 cells transfected with human A2A receptor. To be noted: for Human A2A Receptor pKi / pIC50: radioligand binding. How it is done:
as §1
For A2A receptor the assay was performed with [^3H]-NECA and membranes from HEK293 cells transfected with human A2A receptor (Euroscreen FAST-002B).

The next test concerns the target human A3 receptor (Homo sapiens (Human), UniProt P0DMS8). Nature of the test: Radioligand binding competition assay, [125I]-MECA, membranes from CHO-K1 cells transfected with human A3 receptor. How it is done:
as §1
For A3, the assay was carried out with [^125I]-MECA and membranes from CHO-K1 cells transfected with human A3 receptor (Euroscreen FAST-004B).

Test [4] concerns the target T1, human A2B receptor. Nature of the test: cAMP assay (b), HEK293 cells expressing recombinant human A2B receptor. The test is classed as cell-based. To be noted: reference agonist at EC80, read-out: cAMP pIC50 (converted). How it is done: as §2
Dose response curves were performed in parallel with the reference compounds. 12 μl of cells were mixed with 6 μl of the test compound at increasing concentrations and then incubated 10 min. Thereafter 6 μl of the reference agonist was added at a final concentration corresponding to the historical EC80. The plates were then incubated for 30 min at room temperature. After addition of the lysis buffer and 1 hour incubation, cAMP concentrations were estimated, according to the manufacturer specification, with the HTRF kit.

SMILES strings stand for the structures. pIC50, pKd: −log10 of the molar value. Read-outs that look alike come from different tables or passages of the source.

What is called pIC50 is −log10 of the IC50, conventionally taken in molar units. The term pKd denotes −log10 of the Kd, conventionally taken in molar units. Higher therefore signals a low Kd. Usually inhibition stands for the relative decrease from the control value, in per cent.

Sequence of human A2A receptor (P29274 whole entry): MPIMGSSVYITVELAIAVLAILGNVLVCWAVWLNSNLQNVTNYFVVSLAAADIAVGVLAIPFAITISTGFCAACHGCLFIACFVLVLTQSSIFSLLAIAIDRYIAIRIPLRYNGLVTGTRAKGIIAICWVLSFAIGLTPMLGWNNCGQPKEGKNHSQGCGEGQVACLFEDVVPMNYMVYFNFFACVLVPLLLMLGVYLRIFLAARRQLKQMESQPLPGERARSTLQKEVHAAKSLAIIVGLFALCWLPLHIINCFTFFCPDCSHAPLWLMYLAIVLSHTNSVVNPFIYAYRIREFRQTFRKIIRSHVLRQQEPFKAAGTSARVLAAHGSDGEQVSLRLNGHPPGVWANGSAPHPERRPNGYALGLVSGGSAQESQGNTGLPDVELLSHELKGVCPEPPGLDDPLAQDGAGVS
Sequence of A2B receptors endogenously expressed in HEK293 cells (P29275 whole entry): as the sequence (P29275 whole entry) above
Sequence of human A3 receptor (P0DMS8 whole entry): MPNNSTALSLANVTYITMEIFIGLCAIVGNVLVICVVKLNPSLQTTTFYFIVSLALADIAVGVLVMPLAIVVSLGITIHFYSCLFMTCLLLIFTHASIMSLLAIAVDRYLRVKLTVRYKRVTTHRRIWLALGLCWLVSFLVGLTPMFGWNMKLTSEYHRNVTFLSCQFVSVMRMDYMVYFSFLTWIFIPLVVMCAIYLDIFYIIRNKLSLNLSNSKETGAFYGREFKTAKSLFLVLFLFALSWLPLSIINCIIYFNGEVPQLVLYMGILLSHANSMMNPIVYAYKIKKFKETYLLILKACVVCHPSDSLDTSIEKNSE

Consider `Fc1cnccc1-c1nnc(Nc2cccnc2)nc1-c1cccnc1` [Example 1, 6-(3-fluoropyridin-4-yl)-N,5-di(pyridin-3-yl)-1,2,4-triazin-3-amine], for which, on human A2B receptor [1], the “Human A2B Receptor pKi” value came out at 6.55 and the pIC50 was 6.49. Besides, the pKd in test [2] is 6.30. In test [3], the pIC50 was 6.40 and the IC50 was 398 nM. Further, at human A1 receptor, the “Human A1 Receptor pKi” value is reported as 5.02 and the pIC50 was 4.72. Also, at human A2A receptor, the “Human A2A Receptor pKi” value was 4.73 and the pIC50 is 4.73.

Turning to `Fc1cccc(Nc2nnc(-c3ccncc3F)c(-c3cccnc3)n2)c1` [Example 2, N-(3-fluorophenyl)-6-(3-fluoropyridin-4-yl)-5-(pyridin-3-yl)-1,2,4-triazin-3-amine], at human A2B receptor [1], the “Human A2B Receptor pKi” value was found to be 6.99 and the pIC50 was 6.92. For the same molecule, in test [2], the pKd was 6.00. Moreover, in test [3], the pIC50 is 6.20 and the IC50 is 631 nM. On human A1 receptor, the “Human A1 Receptor pKi” value is reported as 5.43 and the pIC50 is 5.13. Besides, at human A2A receptor, the “Human A2A Receptor pKi” value is recorded as 4.9 and the pIC50 was 4.90.

With `Fc1cnccc1-c1nnc(Nc2nc(Cl)cs2)nc1-c1cccnc1` [Example 4, 4-chloro-N-(6-(3-fluoropyridin-4-yl)-5-(pyridin-3-yl)-1,2,4-triazin-3-yl)thiazol-2-amine], at human A2B receptor [1], the “Human A2B Receptor pKi” value is 6.5 and the pIC50 was 6.44. This molecule had a pKd in test [2] of 6.00. In addition, on human A2A receptor, the “Human A2A Receptor pKi” value was found to be 5.48 and the pIC50 is 5.48.

In test [2], `Fc1ccccc1-c1nc(Nc2cccnc2)nnc1-c1ccnc(C(F)(F)F)c1` [Example 8, 5-(2-fluorophenyl)-N-(pyridin-3-yl)-6-(2-(trifluoromethyl)pyridin-4-yl)-1,2,4-triazin-3-amine] showed a pKd of 6.89.

In the case of `Cc1nsc(Nc2nnc(-c3ccnc(C(F)(F)F)c3)c(-c3ccccc3F)n2)n1` [Example 11, N-(5-(2-fluorophenyl)-6-(2-(trifluoromethyl)pyridin-4-yl)-1,2,4-triazin-3-yl)-3-methyl-1,2,4-thiadiazol-5-amine], the pKd in test [2] was 6.33.

`Cc1cc(Nc2nnc(-c3ccncc3F)c(-c3ccccc3F)n2)[nH]n1` [Example 14, 5-(2-fluorophenyl)-6-(3-fluoropyridin-4-yl)-N-(3-methyl-1H-pyrazol-5-yl)-1,2,4-triazin-3-amine]: on human A2B receptor [1], the “Human A2B Receptor pKi” value is 6.93 and the pIC50 was 6.34. The pKd in test [2] was 6.62. Besides, on human A1 receptor, the “Human A1 Receptor pKi” value worked out at 5.96 and the pIC50 is 5.66. Further, on human A2A receptor, the inhibition at 50 µM worked out at 54% and the “Human A2A Receptor pKi” value is below 4.70. In addition, on human A3 receptor, the “Human A3 Receptor pKi” value is 4.68 and the pIC50 was 4.57.

With `Cc1n[nH]c(Nc2nnc(-c3ccncc3F)c(-c3ccccc3F)n2)n1` [Example 15, 5-(2-fluorophenyl)-6-(3-fluoropyridin-4-yl)-N-(3-methyl-1H-1,2,4-triazol-5-yl)-1,2,4-triazin-3-amine], at human A2B receptor [1], the “Human A2B Receptor pKi” value is given as 6.82 and the negative logarithm of the IC50 (pIC50) is 6.77. Also, on human A2B receptor [4], the IC50 was 501 nM. In test [2], this molecule gave a pKd of 6.92. Also, on human A1 receptor, the “Human A1 Receptor pKi” value is listed as 6.23 and the pIC50 is 5.93. For the same molecule, on human A2A receptor, the “Human A2A Receptor pKi” value came to 4.4 and the pIC50 was 4.40. In addition, on human A3 receptor, the “Human A3 Receptor pKi” value was 4.48 and the pIC50 is 4.36.

Take `CNC(=O)Nc1nnc(-c2ccncc2F)c(-c2ccccc2F)n1` [Example 16, 1-(5-(2-fluorophenyl)-6-(3-fluoropyridin-4-yl)-1,2,4-triazin-3-yl)-3-methylurea]: on human A2B receptor [1], the “Human A2B Receptor pKi” value amounted to 6.84 and the pIC50 is 6.80. The molecule also had a pKd in test [2] of 7.00. On human A1 receptor, the “Human A1 Receptor pKi” value is given as 5.73 and the negative logarithm of the IC50 (pIC50) was 5.42. At human A2A receptor, the inhibition at 50 µM was found to be 48% and the “Human A2A Receptor pKi” value is listed as below 4.70. At human A3 receptor, the “Human A3 Receptor pKi” value is on record as 5.14 and the pIC50 is 5.02.

Regarding `Fc1cnccc1-c1nnc(Nc2nc(C3CC3)n[nH]2)nc1-c1ccccc1F` [Example 31, N-(3-cyclopropyl-1H-1,2,4-triazol-5-yl)-5-(2-fluorophenyl)-6-(3-fluoro-4-pyridyl)-1,2,4-triazin-3-amine], the “Human A2B Receptor pKi” value at human A2B receptor [1] turned out to be 7.27. In addition, the IC50 at human A2B receptor [4] was 275 nM. For the same molecule, the “Human A1 Receptor pKi” value on human A1 receptor is 5.00.

As to `CC(C)(O)c1ccc(Nc2nnc(-c3ccncc3F)c(-c3ccccc3F)n2)cn1` [Example 38, 2-(5-{[5-(2-fluorophenyl)-6-(3-fluoropyridin-4-yl)-1,2,4-triazin-3-yl]amino}pyridin-2-yl)propan-2-ol], the “Human A2B Receptor pKi” value at human A2B receptor [1] was found to be 7.65. Besides, the IC50 on human A2B receptor [4] was 50.1 nM. At human A1 receptor, the “Human A1 Receptor pKi” value is reported as 6.26. Further, at human A2A receptor, the “Human A2A Receptor pKi” value is 5.84. For the same molecule, the “Human A3 Receptor pKi” value at human A3 receptor was 6.42.

On to `OCc1ncc(Nc2nnc(-c3ccncc3F)c(-c3ccccc3F)n2)cn1` [Example 39, (5-{[5-(2-fluorophenyl)-6-(3-fluoropyridin-4-yl)-1,2,4-triazin-3-yl]amino}pyrimidin-2-yl)methanol], for which, at human A2B receptor [1], the “Human A2B Receptor pKi” value stood at 7.76. The IC50 at human A2B receptor [4] was 41.7 nM. The “Human A1 Receptor pKi” value on human A1 receptor was determined as 6.19. The “Human A2A Receptor pKi” value at human A2A receptor amounted to 5.66. Moreover, the “Human A3 Receptor pKi” value at human A3 receptor was determined as 6.52.

The record behind these values is patent US12391670B2, “Functionalized aminotriazines” (LEADXPRO AG, priority 2018, dated 2025).
